From patent US20240197729A1, “ALK-5 Inhibitors and Uses Thereof” (Sumitomo Pharma Oncology, Inc., priority 2021, published 2024) come the findings set out here.

“Also recorded” adds a separate entry of the source.

The test system of this data set is p-SMAD2 (Ser465/Ser467). The data set is described as follows: Longitudinal PK/PD analysis of p-SMAD2 in A549 xenograft mouse model. In kind it is in vivo, mice. To be noted: for percent p-SMAD2 levels compared to vehicle group: 50 mg/kg per oral gavage, normalized to GAPDH; for time of peak p-SMAD2 suppression post dosing / drug tumor and plasma exposure in vivo: single dose 50 mg/kg per oral gavage; for drug tumor and plasma exposure in vivo: A549 xenograft mice. Here is the method:
Accordingly, a longitudinal, twenty-two-hour, one-dose study was performed using Compound 04 and the commercially available ALK5 inhibitor vactosertib in an A549 xenograft mouse model. In this study, p-SMAD2 (Ser465/Ser467) and a housekeeping gene (GAPDH) were measured at ten timepoints from zero (established using vehicle-treated animals) up to twenty-two hours post dose for a single drug dose of fifty milligrams per kilogram per subject (three subjects per dosing group).
For this study, xenografts were prepared and implanted in mice as follows. At five weeks of age, female athymic nude mice (purchased from Charles River) were injected with approximately 2.1 million A549 cells (ATCC, CCL-185). Cells were harvested and resuspended in plain RPMI media (no phenol red added) and Matrigel (Corning 356237) at a one to one ratio, and two hundred-microliters of the cell suspension were injected into the right hind flank of each mouse. Tumors were measured every three days by caliper, and as tumors reached an average of seventy-eighty millimeters cubed, mice were randomized in groups of three subjects. Each of the test compounds (vactosertib, Compound 04) was resuspended in 1-methyl-2-pyrrolidinone (Sigma, 494496) (10%) plus 20% Solutol (Sigma 42966) in water (90%). The drug suspensions were sonicated for fifteen minutes to generate a fine particle suspension before being given to the test subjects. Subjects were dosed (per oral gavage) with the suspension. A vehicle control group with three mice was used to establish the baseline and timepoint zero of phospho-SMAD-2 in the tumor xenograft. The test compounds were administered to the respective subject groups at fifty milligrams per kilogram.
Samples were obtained post administration of test compounds at 30 minutes, one hour, two hours, four hours, six hours, eight hours, twelve hours, sixteen hours and twenty-two hours. Tumors were harvested, snap frozen and stored at negative eighty degrees Celsius until further processing. Plasma was collected from all animals by collecting whole blood via cardiac puncture, followed by centrifugation in tubes containing EDTA (BD, microtainer tubes, 365974). A group of three mice receiving vehicle only served as the zero timepoint for both drug groups. The phospho SMAD-2 levels were determined using the Bio-Plex Pro™ Phospho-Smad2 (Ser465/Ser467) Set (BioRad 171V50019M). The phospho SMAD-2 levels were normalized to GAPDH (MILLIPLEX MAP GAPDH Total Magnetic Bead MAPmate™, Millipore 46-667MAG) levels from each sample. All analytes were analyzed in a multiplex fashion with the Bio-Plex Pro Cell Signaling Reagent Kit (BioRad 171304006M). Frozen tumor samples (fifteen to thirty milligrams) were lysed in 100 μl lysis buffer, processed in a bead mill tube, and centrifuged. The resulting lysate was used at 1:50 dilution for the assay according to the manufacturer's instructions. Bead suspension was analyzed using the Luminex system (MAGPIX).
The study described in Example 8 was expanded to include Compound 01. Accordingly, using the same procedure for preparing test subjects and the ability of compounds tested to suppress TGF-beta signaling over time (as described in Example 8), a longitudinal, twenty-two-hour, one-dose study was performed using Compound 01, and the data were plotted alongside data obtained in Example 8 from Compound 04 and commercially available ALK5 inhibitor vactosertib, which were replotted in accordance with Example 10. For this expansion of the longitudinal study, p-SMAD2 (Ser465/Ser467) and housekeeping gene GAPDH were measured at ten timepoints from zero up to twenty-two hours post a single drug dose of fifty milligrams per kilogram per animal (three animals per group). A vehicle only treatment group of three mice was used to establish the baseline levels of p-SMAD2 in A549 xenograft tumor samples.
As in Example 8, xenografts were prepared and implanted in mice as follows. […]

On to `Cc1nn(CC(F)(F)F)cc1Nc1cc(Nc2cnnc3c(C)cccc23)ccn1` [Compound 01, N2-[3-methyl-1-(2,2,2-trifluoroethyl)-1H-pyrazol-4-yl]-N4-(8-methylcinnolin-4-yl)pyridine-2,4-diamine], for which the “time of peak p-SMAD2 suppression post dosing” value worked out at 2 h; the “drug tumor and plasma exposure in vivo” value is “longer drug tumor and plasma exposure in vivo”. For the same compound, the “percent p-SMAD2 levels compared to vehicle group” value (from here on “percent p-SMAD2 levels”) (0.5 h post dosing) was found to be 57%. For the same compound, under “1 h post dosing”, the “percent p-SMAD2 levels” value was determined as 37%. Also, the “percent p-SMAD2 levels” value (2 h post dosing) amounted to 24%. Besides, the “percent p-SMAD2 levels” value (4 h post dosing) was 30%. Moreover, the “percent p-SMAD2 levels” value (6 h post dosing) came out at 59%. Also, the “percent p-SMAD2 levels” value (8 h post dosing) was found to be 76%. In addition, the “percent p-SMAD2 levels” value (12 h post dosing) is 89.2%. The “percent p-SMAD2 levels” value (16 h post dosing) is listed as 82.1%. Moreover, under “22 h post dosing”, the “percent p-SMAD2 levels” value is 86.5%.
As for `Cc1cccc(-c2[nH]c(CNc3ccccc3F)nc2-c2ccc3ncnn3c2)n1` [Vactosertib, vactosertib, reference compound], the “percent p-SMAD2 levels” value runs as follows: (0.5 h post dosing) 53%; (1 h post dosing) 14%; (2 h post dosing) 21%; (4 h post dosing) 32%; (6 h post dosing) 67%; (8 h post dosing) 65%. In addition, the “percent p-SMAD2 levels” value is 89.1% (12 h post dosing), 74.6% (16 h post dosing) and 101.1% (22 h post dosing). Further, the “drug tumor and plasma exposure in vivo” value (50 mg/kg) is “quickly cleared from the system; also recorded: quickly cleared from the mice”.
On to `Clc1cccc2c(Nc3ccnc(Nc4cccc(N5CCOCC5)c4)c3)cnnc12` [Compound 04, N4-(8-chlorocinnolin-4-yl)-N2-[3-(morpholin-4-yl)phenyl]pyridine-2,4-diamine], for which the “time of peak p-SMAD2 suppression post dosing” value is “two”. Also, the “percent p-SMAD2 levels” value (0.5 h post dosing) was determined as 55%. In addition, the “percent p-SMAD2 levels” value (1 h post dosing) was determined as 24%. The “percent p-SMAD2 levels” value (4 h post dosing) is on record as 14%. For the setting “6 h post dosing”, the “percent p-SMAD2 levels” value is 22%. Further, the “percent p-SMAD2 levels” value (8 h post dosing) came out at 57%. For the same compound, the “percent p-SMAD2 levels” value (12 h post dosing) amounted to 95.0%. Also, where the note is “16 h post dosing”, the “percent p-SMAD2 levels” value was 81.9%. The “percent p-SMAD2 levels” value (22 h post dosing) is 91.4%. Where the note is “50 mg/kg”, the “drug tumor and plasma exposure in vivo” value is “longer drug tumor and plasma exposure in vivo than vactosertib”. Further, where the note is “listed as compound 04, 50 mg/kg”, the “drug tumor and plasma exposure in vivo” value is “longer drug tumor and plasma exposure in vivo”.
